From patent publication US20240076347A1, “METHODS FOR PREVENTING FUNGAL INFECTIONS” (Cidara Therapeutics, Inc., priority 2016, published 2024)
Several values for one entry are separate records, joined by “and”; a condition that tells them apart may be missing. Equal values may be shown once. Numbered stars: 1 amine (or outer) side, 2 acyl side, 3 side chain; on linkers, the order of the positions; unused ones are H or OH. Bridge positions count the residues as written; N and C are the ends. Square brackets hold non-standard residues; d marks the D form. Peptide text beside a SMILES is read from it. * marks the point of attachment. ξ: configuration not given here. Orn(4R-OH,5R-OCH2CH2NMe3+) = C[N+](C)(C)CCO[C@@H](N[*:3])[C@H](O)C[C@H](N[*:1])C(=O)[*:2]; pTerphenylCO(4''-OnC5H11) = CCCCCOc1ccc(-c2ccc(-c3ccc(C(=O)*)cc3)cc2)cc1; hTyr(3S-OH,4S-OH) = N[C@H](C(=O)O)[C@H](O)[C@@H](O)c1ccc(O)cc1; X1 = C[C@H]1CN([*:1])C(C(=O)[*:2])C1O; Hyp = O=C(O)[C@@H]1C[C@@H](O)CN1; ξT = CC(O)C(N)C(=O)O

What was measured:
[1] = test system: Aspergillus fumigatus ATCC; assay: Prophylaxis, neutropenic ICR mouse aspergillosis model, survival; assay type: in vivo; details: 14 days
Description: Aspergillosis model: ICR mice (6/group) were rendered neutropenic by cyclophosphamide on Day −3 (6 mg/mouse), Day +1, and Day +4 (2 mg/mouse). Challenge with Aspergillus fumigatus ATCC via IV (100 μL, […] CFU/mouse) occurred on Day 0. Prior to challenge, mice were given one SC dose (5, 10 or 20 mg/kg) of CD101 on Day −5, Day −3, or Day −1. Survival was monitored for 14 days.

[2] = Clinical pharmacokinetics in healthy adults (Phase 1); assay type: in vivo, human; details: for average 24 h AUC (free drug) over a 7 day period / free drug AUC0-168: human
Excerpt: The in vitro activity of CD101 was previously evaluated as part of the SENTRY international surveillance program using CLSI broth microdilution methodology (M38-A2, M27-A3; Pfaller, et al 2017). […] These susceptibility data were then compared graphically to CD101 plasma concentrations from studies in healthy adults, adjusted for plasma protein binding. Nonclinical efficacy in a murine model of Pneumocystis pneumonia were also considered to evaluate CD101 doses for clinical investigation of antifungal prophylaxis.

C. albicans = assay: Neutropenic murine disseminated candidiasis model, PK/PD target determination; assay type: in vivo, Candida albicans
Description: (§1) Infection model. A neutropenic, murine, disseminated candidiasis model was used for the treatment studies. The mice were rendered neutropenic (polymorphonuclear cell count, <100/mm3) by injecting 150 mg/kg of cyclophosphamide (Mead Johnson Pharmaceuticals, Evansville, IN) subcutaneously 4 days before infection, 100 mg/kg of cyclophosphamide 1 day before infection, and additional cyclophosphamide doses (100 mg/kg) on Day 2 and Day 4 after infection to ensure neutropenia throughout the 168 h (7 d) study period. Three mice were included in each treatment and control group.
(§2) The organisms were subcultured on SDA plates 24 h prior to infection. The inoculum was prepared by placing 3 to 5 colonies into 5 ml of sterile pyrogen-free 0.15 M NaCl warmed to 35° C. The final inoculum was adjusted to a 0.6 transmittance at 530 nm. The fungal count of the inoculum determined by viable counts on SDA was 6.1±0.2 log10 CFU/ml.
(§3) Disseminated infection with the Candida strains was achieved by injection of 0.1 ml of the inoculum via the lateral tail vein 2 h prior to the start of antifungal therapy. At the end of the study period, the animals were sacrificed by CO2 asphyxiation. The kidneys of each mouse were aseptically removed and placed in 0.15 M NaCl at 4° C. The kidneys were homogenized and serially diluted 1:10, and the aliquots were plated onto SDA for viable fungal colony counts after incubation for 24 h at 35° C. The lower limit of detection was 100 CFU/ml. The results are expressed as the mean CFU/kidney for three mice.
(§4) Treatment efficacy and pharmacodynamic target determination of CD101. Neutropenic mice were infected with one of 10 Candida strains as described above. […] Five dose levels that varied from 0.25 to 64 mg/kg were administered once in a 0.2-ml volume by IP route for the 168 h study period. Due to enhanced effect against single isolate, additional studies at 0.0156 and 0.0625 mg/kg was examined for C. glabrata 5592. Groups of three mice were used for each dosing regimen and control group. At the end of the treatment period (168 h), the mice were euthanized, and their kidneys were immediately processed for CFU determination as described above.
(§5) Data analysis. A sigmoid dose-effect (Hill) model was used to measure the in vivo potency of CD101. The efficacy endpoints included the dose level required to produce a 24 h net static effect (no change in organism burden compared to that at the start of therapy) and the dose required to achieve a 1-log10 reduction in colony counts (relative to the burden at the start of therapy), when achieved. The maximum response (Emax) was measured as the difference in the number of CFU/kidney relative to that of the untreated control animals. The doses associated with the stasis and 1-log10 endpoint for each strain was calculated using the equation: log10 D=[log10 (E/(Emax−E))/N]+log10 ED50, where D is the drug dose, E is the control growth in untreated animals, Emax is the maximal effect, Nis the slope of the dose-response relationship, and ED50 is the dose needed to achieve 50% of the maximal effect. The associated AUC/MIC targets were then calculated for each strain. […] The calculations were performed using both total and free drug concentrations. The coefficient of determination (R^2) was used to estimate the variance that might be due to regression with the PK/PD index. Kruskal-Wallis one-way analysis of variance (ANOVA) was used to determine if the differences in PK/PD targets were significant between the species.

C. parapsilosis = assay: as above; assay type: in vivo, Candida parapsilosis; details: for Static dose: single IP dose, 168 h
Description: as §1, §2, §3, §4, §5

[3] = Median of 4 C. albicans strains
[4] = only two strains achieved the endpoint

CCCCCOc1ccc(-c2ccc(-c3ccc(C(=O)N[C@H]4C[C@@H](O)[C@@H](OCC[N+](C)(C)C)NC(=O)C5C(O)[C@@H](C)CN5C(=O)[C@H]([C@@H](C)O)NC(=O)[C@H]([C@H](O)[C@@H](O)c5ccc(O)cc5)NC(=O)[C@@H]5C[C@@H](O)CN5C(=O)C(C(C)O)NC4=O)cc3)cc2)cc1 (stereo partly drawn) [CD101] ({pTerphenylCO(4''-OnC5H11)}-[Orn(4R-OH,5R-OCH2CH2NMe3+)][ξT][Hyp][hTyr(3S-OH,4S-OH)]T[X1]; lactam 1-C)
survival ([1]; 5 mg/kg SC): increased survival when prophylaxis was given closer to challenge | increases in survival compared with vehicle ([1]; 5, 10 and 20 mg/kg SC on Day −5, −3 or −1): > 50% | survival ([1]; 10 and 20 mg/kg SC, any prophylaxis day): All animals in the 10 and 20 mg/kg groups survived | plasma concentrations relative to MEC90 ([2]; 400 mg and 200 mg): above the MEC90 for A. fumigatus for 7 days | mean unbound plasma concentrations relative to MIC90 ([2]; Phase 1 subjects, single dose of 400 mg): above the MIC90 for C. albicans for seven days | average 24 h AUC (free drug) over a 7 day period ([2]; 200 mg dose): ~2200 ng·h/mL | free drug AUC0-168 ([2]; 200 mg dose): 15400 ng·h/mL | average 24 h AUC (free drug) over a 7 day period ([2]; 400 mg dose): approximately 4.3 mg*h/L | free drug AUC0-168 ([2]; 400 mg dose): 30200 ng·h/mL | 1 log kill 24 h Ave Free drug AUC/MIC (C. albicans; 98-17): 3.92 | 1 log kill free drug AUC0-168 h/MIC (C. albicans; 98-17): 27.47 | 1 log kill total drug AUC0-168 h/MIC (C. albicans; 98-17): 3433.40 | Stasis 24 h Ave free drug AUC/MIC (C. albicans; 98-17): 2.19 | Stasis free drug AUC0-168 h/MIC (C. albicans; 98-17): 15.35 | Stasis total drug AUC0-168 h/MIC (C. albicans; 98-17): 1918.43 | 1 log kill dose (C. albicans; 98-17, single IP dose, 168 h): 2.73 mg/kg | Static dose (C. albicans; 98-17, single IP dose, 168 h): 1.34 mg/kg | 1 log kill 24 h Ave Free drug AUC/MIC (C. albicans; 98-210): 6.72 | 1 log kill free drug AUC0-168 h/MIC (C. albicans; 98-210): 47.01 | 1 log kill total drug AUC0-168 h/MIC (C. albicans; 98-210): 5875.95 | Stasis 24 h Ave free drug AUC/MIC (C. albicans; 98-210): 3.70 | Stasis free drug AUC0-168 h/MIC (C. albicans; 98-210): 25.93 | Stasis total drug AUC0-168 h/MIC (C. albicans; 98-210): 3241.65 | 1 log kill dose (C. albicans; 98-210, single IP dose, 168 h): 2.28 mg/kg | Static dose (C. albicans; 98-210, single IP dose, 168 h): 1.06 mg/kg | 1 log kill 24 h Ave Free drug AUC/MIC (C. albicans; 580): 3.05 | 1 log kill free drug AUC0-168 h/MIC (C. albicans; 580): 21.34 | 1 log kill total drug AUC0-168 h/MIC (C. albicans; 580): 2667.21 | Stasis 24 h Ave free drug AUC/MIC (C. albicans; 580): 2.02 | Stasis free drug AUC0-168 h/MIC (C. albicans; 580): 14.15 | Stasis total drug AUC0-168 h/MIC (C. albicans; 580): 1769.30 | 1 log kill dose (C. albicans; 580, single IP dose, 168 h): 2.03 mg/kg | Static dose (C. albicans; 580, single IP dose, 168 h): 1.20 mg/kg | 1 log kill 24 h Ave Free drug AUC/MIC (C. albicans; K-1): 6.86 | 1 log kill free drug AUC0-168 h/MIC (C. albicans; K-1): 48.05 | 1 log kill total drug AUC0-168 h/MIC (C. albicans; K-1): 6005.95 | Stasis 24 h Ave free drug AUC/MIC (C. albicans; K-1): 3.65 | Stasis free drug AUC0-168 h/MIC (C. albicans; K-1): 25.58 | Stasis total drug AUC0-168 h/MIC (C. albicans; K-1): 3197.16 | 1 log kill dose (C. albicans; K-1, single IP dose, 168 h): 5.26 mg/kg | Static dose (C. albicans; K-1, single IP dose, 168 h): 2.52 mg/kg | 1 log kill 24 h Ave Free drug AUC/MIC (C. albicans; Mean of 4 C. albicans strains): 5.14 | 1 log kill dose (C. albicans; Mean of 4 C. albicans strains): 3.08 mg/kg | 1 log kill free drug AUC0-168 h/MIC (C. albicans; Mean of 4 C. albicans strains): 35.97 | 1 log kill total drug AUC0-168 h/MIC (C. albicans; Mean of 4 C. albicans strains): 4495.63 | Stasis 24 h Ave free drug AUC/MIC (C. albicans; Mean of 4 C. albicans strains): 2.89 | Stasis free drug AUC0-168 h/MIC (C. albicans; Mean of 4 C. albicans strains): 20.25 | Stasis total drug AUC0-168 h/MIC (C. albicans; Mean of 4 C. albicans strains): 2531.64 | Static dose (C. albicans; Mean of 4 C. albicans strains): 1.53 mg/kg | 1 log kill 24 h Ave Free drug AUC/MIC (C. albicans; [3]): 5.32 | 1 log kill dose (C. albicans; [3]): 2.51 mg/kg | 1 log kill free drug AUC0-168 h/MIC (C. albicans; [3]): 37.24 | 1 log kill total drug AUC0-168 h/MIC (C. albicans; [3]): 4654.68 | Stasis 24 h Ave free drug AUC/MIC (C. albicans; [3]): 2.92 | Stasis free drug AUC0-168 h/MIC (C. albicans; [3]): 20.5 and 20.46 | Stasis total drug AUC0-168 h/MIC (C. albicans; [3]): 2557.79 | Static dose (C. albicans; [3]): 1.27 mg/kg | kill at high doses (C. albicans; a number of strains, kidney burden, 168 h): > 2 log10 | Stasis 24 h Ave free drug AUC/MIC (C. parapsilosis; 20423.072): 1.39 | Stasis free drug AUC0-168 h/MIC (C. parapsilosis; 20423.072): 9.74 | Stasis total drug AUC0-168 h/MIC (C. parapsilosis; 20423.072): 1217.49 | Static dose (C. parapsilosis; 20423.072): 9.62 mg/kg | Stasis 24 h Ave free drug AUC/MIC (C. parapsilosis; 20477.048): 3.82 | Stasis free drug AUC0-168 h/MIC (C. parapsilosis; 20477.048): 26.72 | Stasis total drug AUC0-168 h/MIC (C. parapsilosis; 20477.048): 3339.42 | Static dose (C. parapsilosis; 20477.048): 52.96 mg/kg | median stasis 24 h free drug AUC/MIC target (C. parapsilosis; [4]): 2.61 | median stasis free drug AUC0-168/MIC target (C. parapsilosis; [4]): 18.2
